Literature values in patent US11338162B2 (priority 2013, dated 2022).

Assays:
rabbit = details: in vivo, topical or ocular
Pseudomonas putida = details: 16 h
[1] = tested on: Leuciscus idus (Golden orfe); details: in vivo
[2] = tested on: Daphnia magna (Water flea); details: in vivo
Lepomis macrochirus = details: in vivo
rat = details: in vivo
[3] = tested on: Desmodesmus subspicatus (green algae); details: 24 h

In the case of `CCCCOCCOCCO` [DGME, diethylene glycol monobutyl ether], the “LD50 Dermal - rabbit” value (rabbit) is given as 2,700 mg/kg, the “dermal LD50 in rabbits” value (rabbit) is given as 2700 mg/kg and the “Toxicity to bacteria LC50 - Pseudomonas putida” value (Pseudomonas putida) is given as 1,170 mg/l-16 h. For the same molecule, the “Toxicity to fish LC50” value [1] was >1,000 mg/l, the “Toxicity to daphnia and other aquatic invertebrates LC50 - Daphnia magna (Water flea)” value [2] was 1,950 mg/l and the “Toxicity to fish LC50” value (Lepomis macrochirus) was 1,300 mg/l. For the same molecule, the “LD50 Oral - rat” value (rat) was 5,660 mg/kg and the “Toxicity to algae IC50 - Desmodesmus subspicatus (green algae)” value [3] was over 100 mg/l-24 h.
